pIC50: −log10 of the molar value. Converted amounts (≈) assume the structure as drawn.
Tests used:
Micrococcus luteus = experiment: Antibacterial activity against Micrococcus luteus MTCC 2470 assessed as inhibition zone after 24 hrs at 30 degC by well diffusion method; format: functional; details: MTCC 2470, 24 h
Staphylococcus aureus [1] = experiment: Antibacterial activity against Staphylococcus aureus MLS-16 MTCC 2940 assessed as inhibition zone after 24 hrs at 30 degC by well diffusion method; format: functional; details: MLS-16 MTCC 2940, 24 h
[2] = Antioxidant activity assessed as DPPH free radical scavenging activity; format: physicochemical
A549 [3] = experiment: Cytotoxicity against human A549 cells assessed as reduction in cell viability by MTT assay; format: functional, cell-based
Pseudomonas aeruginosa = experiment: Antibacterial activity against Pseudomonas aeruginosa MTCC 2453 assessed as inhibition zone after 24 hrs at 30 degC by well diffusion method; format: functional; details: MTCC 2453, 24 h
Staphylococcus aureus [4] = experiment: Antibacterial activity against Staphylococcus aureus MTCC 96 […] after 24 hrs at 30 degC by well diffusion method; format: functional; details: MTCC 96, 24 h
Bacillus subtilis = experiment: Antibacterial activity against Bacillus subtilis MTCC 121 assessed as inhibition zone after 24 hrs at 30 degC by well diffusion method; format: functional; details: MTCC 121, 24 h
Raoultella planticola = experiment: Antibacterial activity against Klebsiella planticola MTCC 530 assessed as inhibition zone after 24 hrs at 30 degC by well diffusion method; format: functional; details: MTCC 530, 24 h
Escherichia coli = experiment: Antibacterial activity against Escherichia coli MTCC 739 assessed as inhibition zone after 24 hrs at 30 degC by well diffusion method; format: functional; details: MTCC 739, 24 h
MCF7 = experiment: Cytotoxicity against human MCF7 cells assessed as reduction in cell viability by MTT assay; format: functional, cell-based
[5] = Cytotoxicity against human SKOV3 cells assessed as reduction in cell viability by MTT assay; format: functional, cell-based; details: SK-OV-3
Candida albicans = experiment: Antifungal activity against Candida albicans MTCC 3017 […] after 24 hrs at 30 degC by well diffusion method; format: functional; details: MTCC 3017, 24 h
[6] = Cytotoxicity against human DU145 cells assessed as reduction in cell viability by MTT assay; format: functional, cell-based; details: DU-145
A549 [7] = experiment: Selectivity index, ratio of IC50 for human IMR90 cells to IC50 for human A549 cells; format: functional
[8] = Cytotoxicity against human IMR90 cells assessed as reduction in cell viability by MTT assay; format: cell-based; details: IMR-90
IMR-90 [9] = experiment: Selectivity index, ratio of IC50 for human IMR90 cells to IC50 for human DU145 cells; format: functional
SK-OV-3 = experiment: Selectivity index, ratio of IC50 for human IMR90 cells to IC50 for human SKOV3 cells; format: functional
IMR-90 [10] = experiment: Selectivity index, ratio of IC50 for human IMR90 cells to IC50 for human MCF7 cells; format: functional

| Structure (SMILES) | MIC (Micrococcus luteus) [µg/mL] | MIC (Staphylococcus aureus [1]) [µg/mL] | EC50 [2] | pIC50 (A549 [3]) | MIC (Pseudomonas aeruginosa) [µg/mL] | MIC (Staphylococcus aureus [4]) [µg/mL] | MIC (Bacillus subtilis) [µg/mL] | MIC (Raoultella planticola) [µg/mL] | MIC (Escherichia coli) [µg/mL] | pIC50 (MCF7) | pIC50 [5] | MIC (Candida albicans) [µg/mL] | pIC50 [6] | Ratio IC50 (A549 [7]) | pIC50 [8] | Ratio IC50 (IMR-90 [9]) | Ratio IC50 (SK-OV-3) | Ratio IC50 (IMR-90 [10]) |
| --- | --- | --- | --- | --- | --- | --- | --- | --- | --- | --- | --- | --- | --- | --- | --- | --- | --- | --- |
| C=CCCCCCCCCC(=O)Nc1cc2c(cc1F)c(=O)c(C(=O)OCC)cn2CC | > 125 | > 125 | 147.5 µg/mL (≈ 332 µM) | 4.18 | > 125 | > 125 | > 125 | > 125 | > 125 | 4.19 | 4.04 | > 125 | 4.06 | – | – | – | – | – |
| CCCCCCCCCCCC(=O)Nc1cc2c(cc1F)c(=O)c(C(=O)OCC)cn2CC | > 125 | > 125 | Not Active | 4.99 | > 125 | > 125 | > 125 | > 125 | > 125 | 4.95 | 5.01 | > 125 | 4.92 | 7.7 | 4.10 | 6.6 | 8.1 | 7.1 |
| CCCCCCCC(=O)Nc1cc2c(cc1F)c(=O)c(C(=O)OCC)cn2CC | > 125 | > 125 | 109.8 µg/mL (≈ 271 µM) | 5.04 | > 125 | > 125 | > 125 | > 125 | > 125 | 5.10 | 5.09 | > 125 | 5.00 | 9.9 | 4.04 | 9 | 11.2 | 11.5 |
| CCCCCCCCCCCCCCCCCC(=O)Nc1cc2c(cc1F)c(=O)c(C(=O)OCC)cn2CC | > 125 | > 125 | 798.8 µg/mL (≈ 1470 µM) | 4.49 | > 125 | > 125 | > 125 | > 125 | > 125 | 4.55 | 4.45 | > 125 | 4.43 | – | – | – | – | – |
| CCCCCCCCCCCCCC(=O)Nc1cc2c(cc1F)c(=O)c(C(=O)OCC)cn2CC | > 125 | > 125 | 286 µg/mL (≈ 585 µM) | 5.02 | > 125 | > 125 | > 125 | > 125 | > 125 | 5.04 | 5.09 | > 125 | 4.98 | 9 | 4.06 | 8.3 | 10.5 | 9.4 |
| CCCCCCCC/C=C/CCCCCCCC(=O)Nc1cc2c(cc1F)c(=O)c(C(=O)OCC)cn2CC | > 125 | > 125 | 750.7 µg/mL (≈ 1380 µM) | – | > 125 | > 125 | > 125 | > 125 | > 125 | – | – | > 125 | – | – | – | – | – | – |
